According to paper PMC10401651, “Characterization of Uranyl (UO2^2+) Ion Binding to Amyloid Beta (Aβ) Peptides: Effects on Aβ Structure and Aggregation” (ACS Chemical Neuroscience, 2023):
Several values for one entry are separate records, joined by “and”; a condition that tells them apart may be missing. Equal entries are not always repeated. Where two headings read alike, the source gives them in different places.

How the values were obtained:
[1] = molecular target: T1, Aβ40 (H6A, H13A, and H14A) triple-mutant, Aβ40 (NoHis) (Homo sapiens, UniProt P05067, H677A/H684A/H685A); assay: Binding affinity via Tyr10 fluorescence quenching, Aβ40 (NoHis) mutant; conditions: 20 μM Aβ40 (NoHis)
T1 construct: the Aβ40 (H6A, H13A, and H14A) triple-mutant; purchased AlexoTech AB (Umeå, Sweden); host or cells: recombinant

[2] = molecular target: T2, Aβ40 peptides (Homo sapiens, UniProt P05067); assay: CD spectroscopy on the Aβ40 secondary structure
T2 construct: namely, the Aβ40 peptide; purchased AlexoTech AB (Umeå, Sweden); host or cells: recombinant
Description: The CD spectra for Aβ40 monomers in aqueous buffer display spectra with minima around 196–198 nm (Figure 5B,E), which is typical for a random coil conformation. […] The difference spectrum is not conclusive but might represent β-sheet conformation (Figure 5C).
CD measurements were carried out on a Chirascan CD spectrometer from Applied Photophysics Ltd. (U.K). Samples containing 600 μL of 10 μM Aβ40 peptide in 20 mM phosphate buffer, at either pH 7.3 or pH 5.1, were placed in a quartz cuvette with a 2 mm pathlength. CD spectra were recorded at 20 °C between 192 and 250 nm using steps of 0.5 nm and a sampling time of 5 s per data point. […] All data was processed with the Chirascan Pro-Data v.4.4.1 software (Applied Photophysics Ltd., U.K.), including smoothing with a ten-point smoothing filter. 50 mM SDS detergent was added to some of the samples as SDS micelles constitute a simple model for bio-membranes.[125],[126] Aβ peptides are known to insert their central and C-terminal segments as α-helices into SDS micelles, while the N-terminal Aβ segment remains unstructured outside the micelle surface.[19],[125] Because the critical micelle concentration for SDS is 8.2 mM in water at 25 °C,[152] micelles clearly formed under the experimental conditions. With approximately 62–65 SDS molecules per micelle,[156] 50 mM SDS yields a micelle concentration slightly below 1 mM, i.e., much higher than the concentration of Aβ peptides. This means that each micelle will generally contain no more than one Aβ peptide, which effectively prevents Aβ aggregation and ensures that uranyl interactions are with monomeric Aβ peptides. […] Even though 50 mM SDS would efficiently denature most folded proteins, such denaturing effects are not relevant for small intrinsically disordered peptides such as Aβ (in monomeric form).

[3] = molecular target: T2, Aβ40 peptides; assay: Fluorescence measurements of dityrosine cross-link formation; type: biochemical; conditions: 100 μM uranyl acetate, 10 μM Aβ40, 20 mM MES pH 7.3, 24 h, room temperature
Description: Two samples of Aβ40 peptides were studied. The control sample contained 100 μM EDTA to remove possible contaminating metal ions that could promote dityrosine formation. […] For both samples, the fluorescence spectra are virtually identical before and after 24 h of incubation (Figure 6). Specifically, no peak around 410 nm, indicative of dityrosine,[129],[130] has emerged.
Fluorescence emission spectra between 330 and 480 nm (excitation at 315 nm) were recorded at room temperature with a Jobin Yvon Horiba Fluorolog 3 fluorescence spectrometer (Longjumeau, France) for two samples of 10 μM Aβ40 peptide in 20 mM MES buffer, pH 7.3. […] The control sample contained 100 μM of the chelator EDTA to remove any free metal ions. All measurements were conducted in triplicate using a quartz cuvette with a 4 mm path length and containing a 0.7 mL liquid sample. Spectra were recorded after 0 and 24 h of incubation, during which the samples were kept at room temperature without agitation or other treatment.

[4] = molecular target: T2, Aβ40 peptides; assay: ThT fluorescence measurements of Aβ40 aggregation kinetics; type: biochemical; conditions: for t1/2 (aggregation halftime): 15 h; for ΔThT (increase in ThT fluorescence): 20 μM Aβ40, pH 7.3, 37 °C, end of 15 h
Description: Fitting eq 1 to the ThT fluorescence curves in Figure 1 produced the kinetic parameters Tlag and t1/2 (Table 1). […] The two samples with 0 and 0.04 μM uranyl both have aggregation half-times of around 3 h and lag times of around 2 h under the experimental conditions (Table 1). The aggregation of the 0.2 μM uranyl sample is clearly slower, with a half-time of almost 7 h and a lag time of around 5 h.
Thioflavin T is a benzothiazole dye that increases in fluorescence upon binding to amyloid aggregates[116] and is therefore used to monitor the formation of amyloid aggregates. The ThT dye was excited at 440 nm, and ThT fluorescence emission at 480 nm was measured every 5 min. Before each measurement, the plate was shaken in orbital mode for 140 s at 200 rpm. The samples were incubated for a total of 15 h, and the assay was repeated three times with four replicates of each condition. To determine kinetic aggregation parameters, the data was fitted to eq 1: [drawing 1] 1 Here, F0 and F∞ are the intercepts of the initial and final fluorescence intensity baselines, m0 and m∞ are the slopes of the initial and final baselines, t1/2 is the time needed to reach halfway through the elongation phase (i.e., aggregation half-time), and τ is the elongation time constant.[116]

[5] = 0.04 μM uranyl acetate, 20 μM Aβ40, 20 mM MES pH 7.3, 37 °C
[6] = 0.2 μM uranyl acetate, 20 μM Aβ40, 20 mM MES pH 7.3, 37 °C
[7] = 0.2 μM uranyl acetate, 20 μM Aβ40, 20 mM MES pH 7.3, 37 °C, listed as uranyl

T2 sequence (P05067 672-711 limits assumed): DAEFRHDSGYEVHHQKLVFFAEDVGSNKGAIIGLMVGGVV
T1 sequence (P05067 672-711 H677A/H684A/H685A): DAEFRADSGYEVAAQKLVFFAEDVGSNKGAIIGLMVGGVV

CC(=O)[O-].CC(=O)[O-].[O]=[U+2]=[O] [uranyl ions, uranyl acetate]
Kd ([1]; pH 5.1 + 50 mM SDS, read-out: KD^App, single replicates): 22.3 µM and 30.7 µM and 27.9 µM
Kd ([1]; pH 5.1 + 50 mM SDS, three replicates, read-out: KD^App, average): 27 ± 4 µM
Kd ([1]; pH 5.1, 20 mM MES, read-out: KD^App, single replicates): 2.3 µM and 2.8 µM and 4 µM
Kd ([1]; pH 5.1, 20 mM MES, three replicates, read-out: KD^App, average): 3 ± 1 µM
structural transition of Aβ40 (CD) ([2]; 50 mM SDS micelles, pH 5.1, 10 μM Aβ40): structural conversion from α-helix to a random coil
changes in the Aβ40 CD spectrum ([2]; 50 mM SDS micelles, pH 7.3, 10 μM Aβ40): no changes at all
structural transition of Aβ40 (CD) ([2]; aqueous buffer pH 5.1, 10 μM Aβ40, 2-256 μM uranyl acetate, 20 °C): conversion from random coil to β-sheet
structural effect on Aβ40 (CD), compared with pH 5.1 ([2]; aqueous buffer pH 7.3, 10 μM Aβ40, 2-256 μM uranyl acetate, 20 °C): weaker
formation of dityrosine cross-links [3]: do not induce the formation of dityrosine cross-links
Tlag (lag time) [4, 5]: 2.0 ± 1.1 h
t1/2 (aggregation halftime) [4, 5]: around 3 h
Tlag (lag time) ([4]; 0.04 μM uranyl acetate, 20 μM Aβ40, 20 mM MES pH 7.3, 37 °C, listed as uranyl): around 2 h
ΔThT (increase in ThT fluorescence) ([4]; 0.04 μM uranyl acetate): 1286 a.u.
Tlag (lag time) [4, 6]: 5.2 ± 0.9 h
t1/2 (aggregation halftime) [4, 6]: 6.7 ± 1.4 h
t1/2 (aggregation halftime) [4, 7]: ~7 h
Tlag (lag time) [4, 7]: around 5 h
ΔThT (increase in ThT fluorescence) ([4]; 0.2 μM uranyl acetate): 958 a.u.
ΔThT (increase in ThT fluorescence) ([4]; 0.4 μM uranyl acetate): 101 a.u.
lag time, visually estimated ([4]; 0.4 μM uranyl, 20 μM Aβ40, 20 mM MES pH 7.3, 37 °C): approximately 9 h
ΔThT (increase in ThT fluorescence) ([4]; 2 μM uranyl acetate): 0 a.u.
ΔThT (increase in ThT fluorescence) ([4]; 20 μM uranyl acetate): 0 a.u.
Aβ40 aggregation seen in ThT curves ([4]; 2 and 20 μM uranyl, 20 μM Aβ40, 15 h): no obvious signs of aggregation after 15 h
